Test results from patent US9833497B2, “Human originated EGF domain proteins and use of the same” (CHENGDU SOURCEBIO LIMITED-LIABILITY COMPANY, priority 2013, dated 2017).

Assays:
Type in all cases: cell-based
E. coli DH5α = assay: Antibacterial activity: MIC and growth curve against E. coli DH5α in 96-well plate; details: minimal inhibitory concentration against E. coli DH5α; 96-well plate, 5×10^5 CFU/mL, 37° C., judged after 8 h
In short: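 Log-phase bacteria (OD600 ~0.5) resuspended in LB at 5×10^5 CFU/mL, exposed to recombinant protein at 50, 25, 12.5 μg/mL final in triplicate, 37 °C shaking at 175 rpm. OD600 read every 30 min; MIC is lowest concentration showing no growth.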

E. coli BL21 = assay: MIC against Gram-negative bacteria: E. coli BL21; details: 96-well plate, 5×10^5 CFU/mL, 37° C., 10 h
In short: (§1)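 First, colonies from LB agar were grown in LB at 37° C, 185 rpm, to McFarland turbidity 0.5, then centrifuged and resuspended in fresh LB. Next, wells received 5×10^5 CFU/mL bacteria plus two-fold serially diluted EGF domain protein (triplicate). Finally, plates were shaken at 37° C and the no-growth concentration taken as MIC.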

Pseudomonas aeruginosa = assay: MIC against Gram-negative bacteria: Pseudomonas aeruginosa; details: 96-well plate, 5×10^5 CFU/mL, 37° C., 10 h
In short: as §1

Klebsiella pneumonia = assay: MIC against Gram-negative bacteria: Klebsiella pneumonia; details: 96-well plate, 5×10^5 CFU/mL, 37° C., 10 h
In short: as §1

Enterobacter cloacae = assay: MIC against Gram-negative bacteria: Enterobacter cloacae; details: 96-well plate, 5×10^5 CFU/mL, 37° C., 10 h
In short: as §1

Aeromonas hydrophila = assay: MIC against Gram-negative bacteria: Aeromonas hydrophila; details: 96-well plate, 5×10^5 CFU/mL, 37° C., 10 h
In short: as §1

Citrobacter diversus = assay: MIC against Gram-negative bacteria: Citrobacter diversus; details: 96-well plate, 5×10^5 CFU/mL, 37° C., 10 h
In short: as §1

Moraxella catarrhalis = assay: MIC against Gram-negative bacteria: Moraxella catarrhalis; details: 96-well plate, 5×10^5 CFU/mL, 37° C., 10 h
In short: as §1

Proteus mirabilis = assay: MIC against Gram-negative bacteria: Proteus mirabilis; details: 96-well plate, 5×10^5 CFU/mL, 37° C., 10 h
In short: as §1

Proteus vulgaris = assay: MIC against Gram-negative bacteria: Proteus vulgaris; details: 96-well plate, 5×10^5 CFU/mL, 37° C., 10 h
In short: as §1

Serratia marcescens = assay: MIC against Gram-negative bacteria: Serratia marcescens; details: 96-well plate, 5×10^5 CFU/mL, 37° C., 10 h
In short: as §1

Substance	MIC (E. coli DH5α) [µg/mL]	MIC E. coli BL21 (E. coli BL21) [µg/mL]	MIC P. aeruginosa (Pseudomonas aeruginosa) [µg/mL]	MIC K. pneumonia (Klebsiella pneumonia) [µg/mL]	MIC E. cloacae (Enterobacter cloacae) [µg/mL]	MIC A. hydrophila (Aeromonas hydrophila) [µg/mL]	MIC C. diversus (Citrobacter diversus) [µg/mL]	MIC M. catarrhalis (Moraxella catarrhalis) [µg/mL]	MIC P. mirabilis (Proteus mirabilis) [µg/mL]	MIC P. vulgaris (Proteus vulgaris) [µg/mL]	MIC S. marcescens (Serratia marcescens) [µg/mL]
PRT609 (CHCSPVGSLSTQCDSYGRCSCKPGVMGDKCDRCQPGFHSLTEAGCRP; listed as Homo sapiens)	50	25	12.5	25	50	25	12.5	25	50	25	12.5
PRT610 (CSCDPSGSIDECNIETGRCVCKDNVEGFNCERCKPGFFNLESSNPRGCTP; listed as Homo sapiens)	50	25	12.5	25	50	12.5	50	12.5	50	12.5	50
PRT612 (CPCPGGSSCAVVPKTKEVVCTNCPTGTTGKRCELCDDGYFGDPLGRNGPVRLCRL; listed as Homo sapiens)	25	12.5	25	50	25	12.5	25	50	25	12.5	25
PRT613 (CQCSDNIDPNAVGNCNRLTGECLKCIYNTAGFYCDRCKDGFFGNPLAPNPADKCKA; listed as Homo sapiens)	50	12.5	25	50	25	12.5	25	50	25	12.5	50
PRT614 (CNCNLYGTMKQQSSCNPVTGQCECLPHVTGQDCGACDPGFYNLQSGQGCER; listed as Homo sapiens)	50	50	50	50	12.5	12.5	25	12.5	25	12.5	25
PRT615 (CDCHALGSTNGQCDIRTGQCECQPGITGQHCERCEVNHFGFGPEGCKP; listed as Homo sapiens)	12.5	25	12.5	25	12.5	25	50	25	12.5	25	50
PRT616 (CDCNGKSRQCIFDRELHRQTGNGFRCLNCNDNTDGIHCEKCKNGFYRHRERDRCLP; listed as Homo sapiens)	25	12.5	25	50	12.5	25	12.5	25	12.5	25	12.5
PRT617 (CNCNSKGSLSARCDNSGRCSCKPGVTGARCDRCLPGFHMLTDAGCTQ; listed as Homo sapiens)	25	12.5	25	12.5	25	12.5	25	12.5	25	12.5	25
